Data taken from PubChem BioAssay AID720513 (Broad Institute, 2013).
Inconclusive results are not listed.

System: U2OS PGC1a acetylation AlphaLISA, overnight
Assay: PGC1a acetylation increase, cellular AlphaLISA – cell-based, cherry-picked samples, set 6, dose response (AID 720513);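 also: cells made to overexpress flag tagged PGC1a plus GCN5 acetyltransferase by viral infection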

Row | SMILES | AC40 [µM]
1 | CC1=CC(C)(C)N2C(=O)C3(SCC(=O)N3c3ccc(F)cc3)c3cc(C)cc1c32 (stereo not given) | 0.966
2 | Clc1ccc(-c2nnc(-c3ccccc3)nc2N2CCSCC2)cc1 | 17.7
3 | CCCOc1ccc(C(=O)Nc2cccnc2)cc1 | 2.52
4 | CCOCCn1c(CN(Cc2ccccc2)Cc2ccccc2)nc2c1c(=O)n(C)c(=O)n2C | 6.65
5 | O=C(CN1CCC(N2CCCCC2)CC1)N1CCCc2ccccc21 | 11.1
6 | COc1ccc(NC(=O)C(=O)NCCC2CCCCN2S(=O)(=O)c2cccs2)cc1 (stereo not given) | 17.9
7 | COc1ccc(-c2nc(N)c(C#N)c(-c3cccnc3)c2C)cc1 | 0.69
8 | O=C(CS(=O)CC(=O)Nc1cccc2c1CCCC2)Nc1ccc(F)cc1 (stereo not given) | 10.9
9 | COc1ccc(-c2csc3nc(C)nc(N4CCC(C)CC4)c23)cc1OC | 3.8
10 | COc1cc(-c2cnc3c(NC(C)=O)cc(-c4ccccc4CN(C)C)cn23)cc(OC)c1OC | 8.19
11 | C[C@@H]1CN([C@H](C)CO)C(=O)c2c(c3ccccc3n2C)-c2ccccc2CO[C@@H]1CN(C)C(=O)Nc1ccc2c(c1)OCO2 | 10.7
12 | COc1ccc(N(C(=O)c2csnn2)C(C(=O)NC2CCCC2)c2cccs2)cc1 (stereo not given) | 2.62
13 | C[C@H](CO)N1C[C@H](C)[C@@H](CN(C)Cc2ccc3c(c2)OCO3)Oc2ccc(NC(=O)Nc3ccc4c(c3)OCO4)cc2CC1=O | 18.2
14 | CC(=O)c1ccc(OCC(=O)OCC(=O)Nc2sccc2C(N)=O)cc1 | 6.46
15 | CC1(C)OC(C)(C)/C(=C\c2ccc(OCC(N)=O)cc2)C1=O | 6.64
16 | CC(C)(C)c1ccc(C(=O)c2c[nH]c(C(=O)NCc3cccnc3)c2)cc1 | 1.23
17 | c1ccc(Cn2nnnc2C(c2cccs2)N2CCCCCC2)cc1 (stereo not given) | 14.2
18 | Cc1ccc(OC(=O)N(C)C[C@H]2OCc3ccccc3-c3c(n(C)c4ccccc34)C(=O)N([C@H](C)CO)C[C@H]2C)cc1 | 7.6
19 | COc1ccc(OC(=O)N(C)C[C@H]2OCc3ccccc3-c3c(n(C)c4ccccc34)C(=O)N([C@@H](C)CO)C[C@H]2C)cc1 | 6.72
20 | COc1ccc(C#Cc2cnc3c(c2)C(=O)N([C@H](C)CO)C[C@H](C)[C@H](CN(C)S(=O)(=O)c2cccs2)O3)cc1OC | 18.2
21 | COCCCn1c(N)c(C(=O)Nc2ccccc2)c2nc3ccccc3nc21 | 1.18
22 | C=CCn1c(=NC(=O)c2ccc(S(=O)(=O)N3CCCC3)cc2)sc2cc(NC(C)=O)ccc21 | 12.3
23 | CC(C)(C)c1ccc(NC(=O)N2CCCN(c3ccc([N+](=O)[O-])cn3)CC2)cc1 | 0.25
24 | CCOC(=O)c1c(-c2ccc(C)cc2C)csc1NC(=O)CSc1nnnn1C | 8.11
25 | COc1ccccc1/C=C1\SC(=S)N(CCC(=O)NCCCn2ccnc2)C1=O | 2.88
26 | CC(C)C(OC(=O)c1cccs1)C(=O)NC1CCCCC1 (stereo not given) | 2.58
27 | N#Cc1ccc(C(=O)CSc2nnc(-c3ccc(C(F)(F)F)cn3)s2)cc1 | 17.8
28 | Cc1ccc(CC(=O)N2CCN(c3ccc([N+](=O)[O-])cc3)CC2)cc1 | 0.312

Row | SMILES | AC40 [µM]
29 | O=C(Cc1ccccc1)Nc1cccc(-c2nc3ncccc3o2)c1 | 2.71
30 | CCC(=O)N(CC)c1nc(-c2ccc(OC)cc2)cs1 | 3.53
31 | Cc1cccc(CS(=O)(=O)c2ncc(Cl)c(C(=O)Nc3ccc(F)cc3)n2)c1 | 1.56
32 | O=C(Cc1ccccc1)Nc1nc(-c2ccc(F)c(F)c2)cs1 | 1.44
33 | CCn1c(=S)[nH]c2cc(S(=O)(=O)N3CCCCC3)ccc21 | 1.62
34 | Cc1ccc2[nH]c(=O)c(CN(Cc3ccc4c(c3)OCO4)Cc3nnnn3C3CCCC3)cc2c1 | 7.98
35 | Cc1ccccc1-c1ccc([C@@H]2[C@H](CO)N3CCCCN(C(=O)Nc4cccc(F)c4)C[C@@H]23)cc1 | 8.22
36 | O=C(c1cc(C2CC2)on1)N1CCCC(N2CCN(c3cccc(C(F)(F)F)c3)CC2)C1 (stereo not given) | 10.8
37 | C[C@@H]1CN([C@@H](C)CO)C(=O)c2c(c3ccccc3n2C)-c2ccccc2CO[C@@H]1CN(C)C(=O)c1cc(Cl)cc(Cl)c1 | 12.7
38 | Cc1cc(C)cc(N(CC(=O)NC2CC3CCC2C3)S(C)(=O)=O)c1 (stereo not given) | 17.1
39 | O=C(Nc1ccc(-c2noc(CCc3ccccc3)n2)cc1)c1cccnc1 | 0.346
40 | COc1ccc(-n2c(=O)c3c4c(sc3n3c(=S)[nH]nc23)CCC4)cc1 | 0.563
41 | COc1cccc(CN2C[C@@H]3N[C@H](C2)C3c2ccc(-c3cccc(C#N)c3)cc2)c1 (stereo not given in full) | 10
42 | CCN(CC)CCCn1c(=S)[nH]c2cc(Cl)ccc2c1=O | 0.631
43 | O=[N+]([O-])c1cc(-c2nnc(Nc3ccc(O)cc3)c3ccccc23)ccc1N1CCOCC1 | 2.74
44 | O=C(/C=C/Sc1ncn[nH]1)c1ccc(Cl)cc1 | 0.395
45 | COc1ccc(S(=O)(=O)N2CCOCC2)cc1NC(=O)CCNC(=O)c1ccc([N+](=O)[O-])cc1 | < 0.3
46 | Cc1ccccc1NC(=O)c1nc(S(C)(=O)=O)ncc1Cl | 0.992
47 | Cc1cccc2cc(CN(Cc3ccc(F)cc3)Cc3nnnn3C3CCCC3)c(=O)[nH]c12 | 4.14
48 | Cc1c(C(=O)NCCSCc2c(F)cccc2Cl)cnn1-c1ccc(Cl)cc1 | 10.5
49 | CCOC(=O)c1ccc(NC(=O)Nc2ccc(F)cc2)cc1 | 16.2
50 | COc1ccc(CCn2c(-c3ccc(OC)cc3)nc3c(c(=O)c4ccccc4n3C)c2=O)cc1 | 7.43
51 | CCOC(=S)SCC(=O)Nc1nc(C)c(C)s1 | 3.58
52 | N#Cc1cccc(C(c2nnnn2C2CCCC2)N2CCCCCC2)c1 (stereo not given) | 1.24
53 | C[n+]1c2n(c3ccccc31)N=C(c1cc(C(C)(C)C)c(O)c(C(C)(C)C)c1)CS2 | 3.5
54 | O=c1[nH]nc(SCCS(=O)(=O)c2ccc(F)cc2)n1-c1ccccc1 | 15.2
55 | COc1ccc(CNc2ccc(-c3ccc(OC)cc3)nn2)cc1 | 1.47
